Laboratory results taken from patent publication US6924309B2 (Children, Youth and Women's Health Service Incorporated, priority 1999, dated 2005).
≈ marks a conversion by molar mass, not a printed value. Entries after “also recorded” stand apart in the source; their conditions may differ. Read-outs that look alike come from different tables or passages of the source.

Assays:
15-LO = target: T1, 15-LO (Glycine max, UniProt P08170); assay: Effect on 15-LO catalysed oxidation of arachidonic acid; type: biochemical, soybean
T1 construct: purchased Sigma Chemical Company
T1 sequence (P08170 1-839): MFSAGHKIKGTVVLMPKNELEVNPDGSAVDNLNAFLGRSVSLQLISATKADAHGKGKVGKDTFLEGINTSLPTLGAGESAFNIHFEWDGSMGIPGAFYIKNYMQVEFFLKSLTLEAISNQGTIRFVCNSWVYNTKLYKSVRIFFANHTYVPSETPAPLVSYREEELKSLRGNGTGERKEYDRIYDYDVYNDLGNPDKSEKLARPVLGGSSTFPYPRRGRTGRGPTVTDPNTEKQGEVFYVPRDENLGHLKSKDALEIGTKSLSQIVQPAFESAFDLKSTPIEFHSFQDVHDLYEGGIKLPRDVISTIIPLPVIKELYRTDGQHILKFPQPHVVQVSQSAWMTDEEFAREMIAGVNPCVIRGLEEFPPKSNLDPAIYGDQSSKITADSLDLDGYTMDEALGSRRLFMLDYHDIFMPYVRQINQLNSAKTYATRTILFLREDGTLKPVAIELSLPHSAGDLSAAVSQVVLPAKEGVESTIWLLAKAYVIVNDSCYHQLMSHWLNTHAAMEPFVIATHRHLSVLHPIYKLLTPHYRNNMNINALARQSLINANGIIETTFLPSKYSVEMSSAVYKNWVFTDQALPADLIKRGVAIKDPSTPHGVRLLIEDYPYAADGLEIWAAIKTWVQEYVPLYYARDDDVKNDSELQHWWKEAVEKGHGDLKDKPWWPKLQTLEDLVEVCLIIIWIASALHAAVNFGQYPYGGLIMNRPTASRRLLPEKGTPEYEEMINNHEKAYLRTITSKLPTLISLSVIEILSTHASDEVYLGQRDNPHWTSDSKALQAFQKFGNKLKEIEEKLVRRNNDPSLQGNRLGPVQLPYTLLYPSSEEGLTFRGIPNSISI

[1] = system: Plasmodium falciparum isolates 3D7, FC27, K+; assay: Radiometric (3H-hypoxanthine) assay on asexual blood stages of P. falciparum; type: cell-based; conditions: for EC50: Plasmodium falciparum, read-out: EC50 against P. falciparum
Description: Using the radiometric assay^(36), the effects of the Lx compounds were examined for antimalarial activity. The Plasmodium falciparum isolates used were 3D7, FC27, K^1 and K^+. These were maintained in human blood group O^+ erythrocytes essentially as described previously using RPM-1640 (HEPES modification) supplemented with 0.25% D-glucose, 0.2% Tess buffer (Sigma Chemical Co, Lt Louis, Mo.) and 10% heat inactivated (56° C., 20 min) human blood group AB serum. Cultures were maintained in tissue culture flasks (Corning, N.Y.) at 37° C. under an atmosphere of 1% 2, 5% CO2 in N2. P. falciparum cultures containing approximately 3.0:% parasitaemia were adjusted to 1×10^8 erythrocytes/ml. To 50 μl of the parasite-erythrocyte culture (5×10^6 erythrocytes) in wells of 96-well microdilution plates wvas added 50 μl of the designated concentration of fatty acid or equivalent amounts of solutions or media. The treated cultures were incubated at 37° C. for 4 h and then pulsed with 50 μl (2.5 μCi) of ^3H-hypoxanthine. After a further 18 h incubation the parasites-erythrocytes were harvested onto glass fibre filter papers using a cell harvester. The amount of radioactivity incorporated was measured in a β-counter. The results have been expressed as % inhibition of parasite growth i.e. the dpm in the fatty acid diluent−dpm in the fatty acid treated cultures/dpm in diluent×100.

Red blood cells = assay: Incorporation of Lx3 into normal red blood cells; type: cell-based; conditions: 200 μg Lx3, 37° C., 4 h
Description: Red blood cells or parasitised red blood cells (K+ strain, 9.25% parasitaenia) (5×10^8 cells) were incubated with 200 μg of Lx3 in 10 mls of HBSS at 37° C. for 4 h. The incubate was centrifuged (3,000 rpm for 10 min) and the medium aspirated. The cell pellet was washed 3 times with 5 ml of HBSS with centrifugation. Lipids were extracted from the cell pellet and neutral lipids, phospholipids and unesterffied Lx3 were resolved by thin-layer chromatography. The neutral lipid and phospholipid samples were transesterified to release any bound Lx3. The amount of Lx3 associated with the unesterifield, neutral lipid and phospholipid fractions was quantitated by gas-liquid chromatography using nonadecanoic acid (nonadecylic acid (19:0)) methyl ester (48 nmol) as a reference standard. For definitive identification of Lx3 and possible products (elongation, de-saturation, shorter-chain products), a combined gas-liquid chromatography-mass spectrometry (GC-MS) technique was employed. FIG. 6 is the GC-MS (expanded view) of Lx3 isolated from parasitised RBC. The mass spectrum of each peak unambiguously identifies 19:0 and Lx3 (19:3(n-6)-N02) respectively. […] No Lx3 was esterified in neutral lipids and phospholipids (Table 4). It is important to note that parasitised red blood cells took up approximately 6 times more Lx3 than non-parasitised cells. […]

[2] = system: parasitised red blood cells (K+ strain); assay: Incorporation of Lx3 into parasitised red blood cells; type: cell-based, P. falciparum
Description: Red blood cells or parasitised red blood cells (K+ strain, 9.25% parasitaenia) (5×10^8 cells) were incubated with 200 μg of Lx3 in 10 mls of HBSS at 37° C. for 4 h. The incubate was centrifuged (3,000 rpm for 10 min) and the medium aspirated. The cell pellet was washed 3 times with 5 ml of HBSS with centrifugation. Lipids were extracted from the cell pellet and neutral lipids, phospholipids and unesterffied Lx3 were resolved by thin-layer chromatography. The neutral lipid and phospholipid samples were transesterified to release any bound Lx3. The amount of Lx3 associated with the unesterifield, neutral lipid and phospholipid fractions was quantitated by gas-liquid chromatography using nonadecanoic acid (nonadecylic acid (19:0)) methyl ester (48 nmol) as a reference standard. For definitive identification of Lx3 and possible products (elongation, de-saturation, shorter-chain products), a combined gas-liquid chromatography-mass spectrometry (GC-MS) technique was employed. FIG. 6 is the GC-MS (expanded view) of Lx3 isolated from parasitised RBC. The mass spectrum of each peak unambiguously identifies 19:0 and Lx3 (19:3(n-6)-N02) respectively. […] No Lx3 was esterified in neutral lipids and phospholipids (Table 4). It is important to note that parasitised red blood cells took up approximately 6 times more Lx3 than non-parasitised cells. […] The lack of derivatisation or incorporation of Lx3 into neutral lipids and phospholipids is almost certainly due to Lx3 not having a carboxylic acid group which is mandatory for the conversion of a fatty acid to its coenzyme A ester.

P. berghei = type: in vivo; set-up: Parasitaemia: unit not given here; conditions: for Parasitaemia: 40 mg/kg from one day prior to infection, twice a day
Description: In other sets of experiments, the effects of Lx3 were examined in vivo in mice infected with P. berghei. FIG. 10 illustrates the effect of Lx3 on the level of P. berghei parasitaemia in the mice. Results are the means ±SEM of five mice per group. Mice were infected intraperitoneally with the parasite and when an appropriate parasitaemia was reached they were treated intravenously with 40 mg/kg weight of MP3.
Mice were treated at one day prior to infection with 2 doses of 40 mg/kg body weight and then another dose 60 min prior to infection (0 time) on the following day. The parasitaemia was checked 4 h later and at the times stipulated in the Table. The animals were treated with either DPC or Lx3 twice a day 30 min after taking a parasitaemia reading. The results are presented as mean ±SEM of parasitaelnia of 4 mice per group.

TNF-α = TNF-α production by human peripheral blood leukocytes; type: cell-based; conditions: Leukocyte, stimulus S. aureus, read-out: % Inhibition (compared to control) of TNF-α
Description: (§1) The effects of the nitroalkanes (Lx1-Lx5) on lymphocyte activation and cytokine production were examined. The ability of the PUFA to suppress mitogen-induced proliferation in response to PHA and S. aureus, and to inhibit cytokine production (TNFα and IFNγ), was assessed.

IFN-γ = IFN-γ production by human peripheral blood leukocytes; type: cell-based; conditions: Leukocyte, stimulus PHA, read-out: % Inhibition (compared to control) of IFN-γ
Description: as §1

Paw oedema = conditions: in vivo
P. falciparum = conditions: 20 μg/ml
Description: Parasites were treated with 20 μg/ml of compound. Results are means of triplicate assays of one experiment and are consistent with that found in three experiments.

CCCCC/C=C\C/C=C\C/C=C\CCCCC[N+](=O)[O-] [Lx3, (z,z,z)-1-Nitro-6,9,12-octadecatriene]
Effect on 15-LO catalysed oxidation of AA (15-LO): Nil | Antimalarial activity (in words) [1]: very active | EC50 ([1]; 3D7, isolate FC27): 6 µg/mL (≈ 20.4 µM) | EC50 ([1]; 3D7, isolate K+): 3 µg/mL (≈ 10.2 µM) | EC50 ([1]; isolate 3D7): 2 µg/mL (≈ 6.82 µM) | Activity against a chloroquine resistant isolate ([1]; chloroquine resistant isolate): active | Reduction of antimalarial activity by human serum ([1]; compound 20 μg/ml, presence of human serum): did not affect the activity; also recorded: not inhibited by serum | Antimalarial activity on P. falciparum 3D7 (FIG. 1, in words) ([1]; isolate 3D7): greatest activity | Recovered cellular Lx3, unesterified Lx3 (Red blood cells): 2.1 ± 0.2 % of total added | Form of the compound taken up by the cells ([2]; GC-MS): remained exclusively in the unesterified form | Elongation, chain-shortening or de-saturation products detected ([2]; either cell population, GC-MS): No elongation, chain-shortening or de-saturation products | Recovered cellular Lx3, unesterified Lx3 ([2]; parasitised red blood cells, 200 μg Lx3, 37° C., 4 h): 12.9 ± 0.4 % of total added | Tolerability in mice (P. berghei; intravenous 40 mg/kg): tolerated Lx3 quite well | Parasitaemia (P. berghei; mice, 4 h after infection): 0.18 ± 0.05 | Parasitaemia (P. berghei; mice, 22 h after infection): 0.30 ± 0.10 | Parasitaemia (P. berghei; mice, 28 h after infection): 0.14 ± 0.05 | Parasitaemia (P. berghei; mice, 46 h after infection): 0.40 ± 0.14 | Change in circulating parasites (parasitaemia) (P. berghei; mice, single intravenous dose 40 mg/kg, within 5 h after injection): marked drop in circulating parasites | inhibition at 20 µM (TNF-α): 48.2% | inhibition at 20 µM (IFN-γ): 37.6% | Effect in paw oedema (Paw oedema): either inflammatory or anti-inflammatory | Morphology of parasites in treated cultures (P. falciparum): degenerate mature rings, trophozoites and shizonts
